Data reported in the supplement of paper PMC10307832.

How the values were obtained:
Experiment in all cases: relative viability (nuclei count vs DMSO), 5 days (fraction); higher = more cells survive
[1] = compound: CCn1c(-c2nonc2N)nc2c(C#CC(C)(C)O)ncc(OC[C@H]3CCCNC3)c21 + Nc1ncn([C@H]2C[C@H](O)[C@@H](CO)O2)c(=O)n1 [Decitabine] (partner 2 µM)
Summary of the method: (§1)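 Relative viability was taken as the ratio of nuclei in treated wells to nuclei in vehicle wells. Lung cancer cell lines in 1536-well plates received compounds by pin tool one day after seeding, either one drug alone or a fixed anchor-drug dose plus five library-drug doses (not always all listed) in √10 steps. Nuclei were counted on 4× images after 5 days of treatment, and values are medians of duplicate plates.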

[2] = compound: CCn1c(-c2nonc2N)nc2c(C#CC(C)(C)O)ncc(OC[C@H]3CCCNC3)c21 + CC(=O)c1c(C)c2cnc(Nc3ccc(N4CCNCC4)cn3)nc2n(C2CCCC2)c1=O [Palbociclib] (partner 0.5 µM)
Summary of the method: as §1

[3] = compound: CCOC1=CC=CC=C1N=NC2=C(NN(C2=O)C3=NC(=CS3)C4=CC=CC=C4)C [BAM7] + C[C@@H](Oc1cc(-c2cnn(C3CCNCC3)c2)cnc1N)c1c(Cl)ccc(F)c1Cl [Crizotinib] (partner 1 µM)
Summary of the method: as §1

[4] = compound: CCOC1=CC=CC=C1N=NC2=C(NN(C2=O)C3=NC(=CS3)C4=CC=CC=C4)C [BAM7] + C[C@]1(O)C[C@@H](c2nc(-c3ccc4ccc(-c5ccccc5)nc4c3)c3c(N)nccn32)C1 [Linsitinib] (partner 1 µM)
Summary of the method: as §1

Cell Line	relative viability ([1]; first compound 0.01 µM)	relative viability ([1]; first compound 0.03162 µM)	relative viability ([1]; first compound 0.1 µM)	relative viability ([1]; first compound 0.3162 µM)	relative viability ([1]; first compound 1 µM)	relative viability ([2]; first compound 0.01 µM)	relative viability ([2]; first compound 0.03162 µM)	relative viability ([2]; first compound 0.1 µM)	relative viability ([2]; first compound 0.3162 µM)	relative viability ([2]; first compound 1 µM)	relative viability ([3]; first compound 0.5 µM)	relative viability ([3]; first compound 5 µM)	relative viability ([3]; first compound 50 µM)	relative viability ([4]; first compound 0.5 µM)	relative viability ([4]; first compound 5 µM)	relative viability ([4]; first compound 50 µM)	relative viability ([3]; first compound 15.81 µM)	relative viability ([4]; first compound 15.81 µM)
NCI-H1975	0.428	0.382	0.378	0.409	0.359	0.484	0.599	0.51	0.544	0.305	0.792	0.773	0.824	0.847	0.981	0.898		
NCI-H1993	0.534	0.643	0.599	0.63	0.677	0.55	0.642	0.628	0.659	0.542	0.751	0.843	0.826	0.688	0.724	0.742	0.771	0.701
NCI-H2009	0.35	0.469	0.354	0.342	0.39	0.202	0.223	0.229	0.186	0.241	1.12	1.05	0.987	1.27	1.2	1.16	0.973	1.15
NCI-H2023	0.207	0.202	0.221	0.245	0.236	0.357	0.379	0.331	0.205	0.262	0.631	0.59	0.524	0.657	0.689	0.67	0.454	0.64
